We go through one compound from US20250177366A1, “COMPOSITIONS AND METHODS FOR ALLEVIATING PAIN AND REDUCING ADVERSIVENESS OF STIMULI” (UNIVERSITY OF WASHINGTON, priority 2021, published 2025).

The structures appear in SMILES notation.

This assay relates to larval zebrafish. The assay is described as follows: Chemical attraction/aversion assay with the test chemical itself as source (inherent attractiveness). It is filed as in vivo, Zebrafish (Danio rerio). An excerpt:
To confirm that AS1 itself was not attractive, the chemical attraction/aversion assay was used. […] Since the assay was modified to accommodate the inability to dissolve SKF into agarose at high concentrations (see Materials and Methods), the inherent attractiveness of AS1 was re-tested using this new format.
Chemical attraction/aversion assays. The agarose attraction/aversion assay was adapted from previously described experiments (Jordi et al., Sci. Adv. 2018; 4:1-15). For the AITC aversion assay, AITC and DMSO were added to molten 0.8% agarose to achieve a final concentration of 100 mM AITC and 2% DMSO. For the AS1 attraction/aversion assay, AS1 and DMSO were added to 0.8% molten agar to achieve final concentrations of 50 mM and 2%, respectively. To construct the test chambers, the lids of 10×10 cm square petri dishes (insert cat #and company) were lined on four sides with either the test (chemical-containing) or plain agarose (300 μL per side) and allowed to solidify. For all experiments, 30-40 randomly selected 6 dpf zebrafish were caught with a 10 mL pipette pump (Bel-Air Products, cat #: 13683C) equipped with a glass wide-bored Pasteur pipet (Fisher Scientific, cat #: 22-037-540) and deposited into a standard 10 cm diameter petri dish (Fisher Scientific, cat #: 07-202-031). As much E2 media as possible was carefully removed using the same pipette. For single incubation experiments, 30 mL of 1× solutions of the control or test chemical was added to each petri dish, and fish were incubated for 10 minutes at 28.5° C. For double incubation experiments, 15 mL of 1× solutions containing control (DMSO) or test chemicals was added to the larvae-containing petri dish. […] Swimming behavior was immediately recorded for 20 minutes using the same high-definition camcorder in the thermal preference assays.
For the SKF attraction/aversion assay, custom 10 cm×10 cm plates using clear resin (Formlabs, cat #: RS-F2-GPCL-04) and a Form 3+3D printer (Formlabs, cat #: PKG-F3-WSVC-BASIC) were designed. […] Swimming behavior was then recorded for 20 minutes. […]

In the case of `CC(C)c1ccc(C(=O)Nc2ccncc2)cc1` [AS1, 4-propan-2-yl-N-pyridin-4-ylbenzamide], under “50 mM AS1 in agarose on one side of square arena vs control agarose”, the “inherent attractiveness of chemical infused into agarose” value was “did not approach it in a way that was appreciably different from control agarose”. In addition, the “inherent attractiveness of chemical deposited into trough” value (2 mL in trough of 3D-printed arena, SKF 25 μM, AS1 10 μM-1 mM) is “neutral or mildly aversive”.
